Measured values from patent US8906953B2, “Pyrrolidine substitute flavones for the treatment of inflammatory disorders” (Piramal Enterprises Limited, priority 2010, dated 2014).

How the values were obtained:
[1] = system: synovial fluid mononuclear cells (SFMC); test: Induction of apoptosis in synovial fluid mononuclear cells (Annexin-V/PI); type: cell-based, human; conditions: adherent and non-adherent SFMC from RA patients, 5 μM and 10 μM, 24 hours
Method: The assay was designed as in reference, Arthritis and Rheumatism, Vol. 52, No. 1, January 2005, the disclosure of which is incorporated herein by reference for the teaching of the assay.
Synovial fluid was collected from rheumatoid arthritis patients under going knee aspiration. The fluid was collected in vacutainers and processed within 2 hours of collection. SFMC were isolated using gradient centrifugation using Ficoll-Hypaque solution (Sigma). Isolated SFMC were suspended in RPMI 1640 (Rosewell Park Memorial Institute) culture medium (Sigma-Aldrich Fine Chemicals, USA) containing 20% fetal bovine serum (FBS) (JRH, USA), 100 U/ml penicillin (Sigma Chemical Co. St Louis, Mo.) and 100 μg/mL streptomycin (Sigma Chemical Co. St Louis, Mo.). The cell concentration was adjusted to 1×10^6 cells/mL. The viability as determined by trypan blue dye exclusion was uniformly >98%. 4 mL of this cell suspension was added to each well of a 6-well plate. The SFMC were incubated for 3-4 hours. Non-adherent cells were removed and cultured separately in 6-well plates. Fresh medium was added to the adherent cells. After 24 hours incubation in a humidified atmosphere at 37° C. in 5% CO2, non-adherent cells were removed and pooled with previous days samples. These cells were plated at a density of 2×10^6 cells/well. The adherent cell population was re-fed fresh complete medium. […]

[2] = system: arthritic (CIA) DBA/1J mice; test: Collagen induced arthritis in mouse; type: in vivo; conditions: 50 mg/kg oral twice daily, 23 days
Method: The assay was designed as in reference, J. Exp. Med., 1985, 162, 637-646, the disclosure of which is incorporated herein by reference for the teaching of the assay.
Male DBA/1J mice (originally procured from Jackson Laboratories, USA), aged 8-10 weeks were immunized with an emulsion equivalent to 200 μg of type II collagen in Freund's Complete Adjuvant, injected intradermally at the base of the tail. A booster shot with the same emulsion was given 21 days later. A group of naïve mice was maintained alongside.
From day 23 to day 56, mice were examined daily once for the signs of rheumatoid arthritis, using the Articular Index and paw thickness as parameters. Articular Index scoring was performed employing the following criteria:
Mice with a minimum hind paw score of 2 were inducted into the study.
Mice were randomized into the various study groups and orally administered the vehicle (0.5% CMC, 1 ml/kg), test compound (compound of example 3, 50 mg/kg twice daily) and standard compound (Enbrel, 3 mg/kg, s.c., once daily). […] The dosing of the compounds was done for 23 days.
The following parameters were observed and recorded daily, • 1. Body weight • 2. Articular index • 3. Paw thickness in mm using a tension free caliper • 4. Any significant observation regarding the condition of the animal. […]
The results are graphically depicted in FIG. 3 (Articular index versus days of treatment) and FIG. 4 (Paw thickness versus days of treatment). Data obtained during the course of this study (articular index and paw thickness) was statistically evaluated by applying Mann-Whitney U test.
Mice were humanely euthanized and the hind paws were harvested from each animal, fixed in 10% neutral buffered formalin, decalcified in 5% formic acid and embedded in paraffin. Section […] were stained with either hematoxylin and eosin or safranin 0 and evaluated microscopically. Histopathological changes were scored as follows: mild (score=1), moderate (score=2) or severe (score=3) for the parameters of cellular infiltration, bone erosions and cartilage damage, graded separately. […]

TNF-α = test: LPS-induced TNF-α release in Balb/c mice; type: in vivo; conditions: Mus musculus, plasma 1.5 hours post LPS (1 mg/kg i.p.)
Method: The assay was designed as in reference, J. Med. Bio. Res., 1997, 30, 1199-1207, the disclosure of which is incorporated herein by reference for the teaching of the assay. […] All suspensions were freshly prepared in 0.5% CMC. One hour later, LPS (1 mg/kg) (Escherchia coli, serotype 0127:B8, Sigma Chemical Co., St. Louis, Mo.) dissolved in sterile pyrogen-free saline was administered intra-peritoneally to the control group, standard treatment group (Rolipram, 30 mg/kg, p.o.) and test groups (compound of example 3), except the negative control group, which received normal saline. Blood samples were collected from anesthetized mice, with heparin as an anti-coagulant (25 IU per sample) 1.5 hours post LPS challenge. […] Percent inhibition of TNF-α release was calculated by comparing the TNF-α levels of the treatment groups with those of the control group.

## CN1CC[C@@H](c2c(O)cc(O)c3c(=O)cc(-c4ccc(C(F)(F)F)cc4Cl)oc23)[C@@H]1CO.Cl [Compound of example 3, (+)-trans-2-(2-Chloro-4-trifluoromethyl-phenyl)-5,7-dihydroxy-8-(2-hydroxymethyl-1-methyl-pyrrolidin-3-yl)-chromen-4-one hydrochloride]
[1]
  Induction of apoptosis (Annexin-V/PI): induces apoptosis
[2]
  Severity of disease by articular index and paw thickness: trend towards ameriolation of the disease
[2]; cellular infiltration, bone erosions, cartilage damage
  Histopathological evaluation of hind paws: potential anti-arthritic effect
TNF-α; 12.5 mg/kg oral
  inhibition at 12.5 mg/kg: 53.2 ± 12.5%
TNF-α; 25 mg/kg oral
  inhibition at 25 mg/kg: 66.8 ± 11.5%
TNF-α; 50 mg/kg oral
  inhibition at 50 mg/kg: 82 ± 4.88%
TNF-α; 75 mg/kg oral
  inhibition at 75 mg/kg: 77.3 ± 8.61%
TNF-α; 100 mg/kg oral
  inhibition at 100 mg/kg: 92.6 ± 3.5%
